Test: HPLC assay for profiling solution reactivity and stability of purine inhibitors
Format: physicochemical
Settings: N7 versus N9 tautomer, on ice 6 h
Protocol: HPLC assay for profiling solution reactivity and stability of purine inhibitors—The following reagents were prepared and stored on ice prior to use. 0.1 M solution of caffeine in acetonitrile, 1.0 M solution of amino acid mimetic (butanethiol), tetramethylguanidine (TMG), 1 M HOAc in ACN and 10 mM solution of purine fragment in ACN mixture. 500 μL of fragment solution were transferred to a dram vial on ice. To the mixture, 5.5 μL of TMG and 5.5 μL of respective amino acid mimetic were added and solutions were stirred on ice for 6 h. To monitor reactivity, 50 μL aliquots were removed at indicated time points and quenched with 10 μL of a 1:1 mixture of caffeine and HOAc. Samples were injected (1 μL) and analyzed by reverse-phase HPLC on a Shimadzu 1100 Series spectrometer (Shimadzu Corporation, Kyoto, Japan) with UV detection at 254 nm. Reaction progress was evaluated by monitoring consumption of starting material (purine fragment) normalized to caffeine standard. Chromatographic separation was performed using a Phenomenex Kinetex C18 column (2.6 μm, 50×4.6 mm; Phenomenex, Torrance, Calif., United States of America). Mobile phases A and B were composed of H2O+0.1% HOAc and ACN+0.1% HOAc, respectively. […] All purine fragment peak AUCs used for calculations were normalized to caffeine standard AUCs at respective time points to account for run-to-run variations by HPLC. […]

reactivity for butanethiol	Compound
essentially equivalent reactivity	O=S(=O)(c1ccc(F)cc1)n1cnc2nc(Cl)nc(Cl)c21 [Pi-13, 2,6-dichloro-7-((4-fluorophenyl)sulfonyl)-7H-purine]
essentially equivalent reactivity	O=S(=O)(c1ccc(F)cc1)n1cnc2c(Cl)nc(Cl)nc21 [Pi-14, 2,6-dichloro-9-((4-fluorophenyl)sulfonyl)-9H-purine]

— patent publication US20220251085A1, “CYSTEINE BINDING COMPOSITIONS AND METHODS OF USE THEREOF” (University of Virginia Patent Foundation, priority 2019, published 2022)
